According to patent publication US20080032918A1, “Mast cell-derived renin” (Cornell Research Foundation, Inc., priority 2003, published 2008):
“Also recorded” adds a separate entry of the source.

How the values were obtained:
[1] = system: guinea-pig hearts; assay: ischemia-reperfusion in guinea pig hearts ex vivo (Langendorff); settings: 20-min global ischemia, 45-min reperfusion, lodoxamide 10 μM; for ventricular fibrillation during reperfusion: BILA2157 100 nM; for renin overflow into coronary effluent on reperfusion: BILA 2157 100 nM
Procedure: Ischemia-reperfusion in guinea pig hearts ex vivo: Guinea-pig hearts will be perfused for 30 min prior to ischemia. Inamura et al., Circ. Res. 78: 475-481 (1996). Normothermic 20-min global ischemia will be induced by complete cessation of coronary perfusion, followed by 45-min reperfusion. Coronary effluent will be assayed for renin activity and NE.
Guinea-pig hearts were perfused ex vivo at constant pressure in a Langendorff apparatus and subjected to 20-min. stop-flow global ischemia, followed by 45-min. reperfusion (Hatta, E., R. Maruyama, S. J. Marshall, M. Imamura, and R. Levi. Bradykinin promotes ischemic norepinephrine release in guinea pig and human hearts. J. Pharmacol. Exp. Ther. 288: 919-927 (1999)). Surface ECG and coronary flow were continuously monitored; the coronary effluent was assayed for renin activity (i.e., ANG I generated as described herein). There was no detectable renin in the coronary effluent prior to ischemia. With reperfusion, there was significant renin overflow into the coronary effluent accompanied by ventricular fibrillation (VF) (FIG. 12).
Traces in the left panels were recorded at the end of the equilibration period prior to ischemia, showing normal sinus rhythm.

[2] = target: T1, renin (Homo sapiens, UniProt P00797); settings: specific renin inhibitor; cited from earlier work
T1 sequence (P00797 67-406): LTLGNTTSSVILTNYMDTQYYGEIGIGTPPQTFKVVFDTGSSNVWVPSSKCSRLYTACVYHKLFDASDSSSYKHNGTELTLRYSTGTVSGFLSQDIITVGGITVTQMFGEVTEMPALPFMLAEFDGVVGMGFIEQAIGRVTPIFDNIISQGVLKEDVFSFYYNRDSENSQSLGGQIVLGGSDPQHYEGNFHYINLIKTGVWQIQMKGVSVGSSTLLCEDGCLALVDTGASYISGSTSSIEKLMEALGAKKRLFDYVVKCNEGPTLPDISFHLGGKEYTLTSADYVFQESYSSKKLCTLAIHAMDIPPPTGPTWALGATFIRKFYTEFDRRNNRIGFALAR

[3] = system: isolated normoxic guinea pig hearts; assay: chronotropic response and norepinephrine overflow in normoxic isolated hearts challenged with 48/80; settings: BILA 2157 100 nM, lodoxamide 30 μM
From the text: These findings indicate that cardiac mast cells are capable of releasing active renin, which then leads to local formation of ANG II causing norepinephrine exocytosis.

[4] = target: T2, mast-cell-derived renin (Homo sapiens, UniProt P00797); assay: renin activity (ANG I formed, RIA) of HMC-1 cell releasate incubated with human angiotensinogen; type: biochemical; settings: BILA2157 100 nM
T2 construct: endogenous in cells; host or cells: HMC-1 human mastocytoma cell line, degranulated with compound 48/80
T2 sequence (P00797 67-406): T1 sequence (P00797 67-406)
Procedure: Renin activity: Pooled confluent flasks of HMC-1 cells, or individual wells of HMC-1 cells, were pelleted and resuspended in HEPES buffer (pH 5.7, 1 mM EDTA) containing the mast-cell degranulating agent compound 48/80 (100 μg/ml or 20 μg/ml; Sigma). After 30 min, cells were spun down and the renin-containing supernatant was incubated with increasing concentrations of human angiotensinogen (Sigma). Renin activity (ANG I formed) was then determined using a GammaCoat Plasma Renin Activity 1251 Radioimmunoassay kit (DiaSorin, Mass.). The selective renin inhibitor BILA2157 was from Boehringer Ingelheim.
The cell releasate was incubated with increasing concentrations of angiotensinogen and then assayed for ANG I formed (i.e. renin activity) by RIA. A concentration-response curve for ANG I formation as a function of angiotensinogen concentration was generated on the HMC-1 releasate. The amount of ANG I formed increased with angiotensinogen concentration. […]
FIG. 4F illustrates that mast-cell-derived renin can be synthesized in mast cells. Releasates were analyzed from the same population of HMC-1 exposed to compound 48/80 (20 μg/ml) 48 hours apart, and analyzed for BILA2157-sensitive renin activity.

[5] = system: cardiac sympathetic nerve endings; assay: norepinephrine release from isolated cardiac sympathetic nerve endings incubated with angiotensinogen; type: cell-based, guinea pig; settings: nerve endings incubated with BILA2157 10 nM, enalaprilat 30 nM or EXP 3174 10 nM
From the text: Preparation ofguinea-pig sympathetic nerve endings: Cardiac sympathetic nerve endings were isolated from guinea-pig hearts as previously described (Seyedi et al., J Pharmacol Exp Ther 290: 656-663, 1999; Seyedi et al., Circ. Res. 81: 774-784, 1997). Spontaneously beating hearts were isolated as previously described by the inventors (Hatta et al., J. Pharmacol. Exp. Ther. 288: 919-927, 1999; Park et al., Circ. Res. 71: 992-1001, 1992). Briefly, male Hartley guinea pigs were anesthetized with CO2 vapor and then exsanguinated. Hearts were perfused through the aorta for 15 min at constant pressure with Ringer's solution at 37° C. (Park et al., Circ. Res. 71: 992-1001, 1992) to exclude blood from the coronary circulation. Hearts were minced in 0.32 M sucrose containing 1 mM EGTA. The minced tissue was then digested with 75 mg collagenase per 10 ml HBS per gm for 1 hr at 37° C. After low speed centrifugation the resulting pellet were suspended in 10 volumes of 0.32 M sucrose and homogenized with a Teflon/glass homogenizer. The homogenate was centrifuged at 650g for 10 min, the pellet was re-homogenized and the homogenate was centrifuged again. The pellet containing cellular debris was discarded, the supernatants from the last two spins were combined, the pooled supernatant was equally subdivided into 4 to 8 tubes and re-centrifuged for 20 min at 20,000g at 4° C. This pellet contains cardiac sympathetic nerve endings. The pellet was resuspended either in HEPES-buffered saline (HBS; 500 μl, normoxic conditions) or in glucose-free HBS, which contained the reducing agent sodium dithionite (500 μl, ischemic conditions), and incubated in the absence or presence of angiotensinogen (1 hr) or other agents for 20 min at 37° C. prior to ischemia (see below). Each suspension was used only once as an independent sample.
Norepinephrine assay: Coronary effluent and synaptosome supernatant will be assayed for NE by HPLC with electrochemical detection (ESA). […]

[6] = system: cardiac mast cells; assay: renin in coronary effluent of normoxic Langendorff-perfused hearts challenged with 48/80; set-up: species or system guinea pig; settings: lodoxamide 10 μM or BILA 2157 100 nM prior to 48/80
Procedure: Renin was measured in the coronary effluent of normoxic Langendorff-perfused guinea-pig hearts, ex vivo. […] When hearts were perfused with the mast-cell stabilizer lodoxamide (FIG. 9B) or the renin inhibitor BILA2157 prior to 48/80 challenge (FIGS. 9A and B), renin overflow was abolished.

SMILES: CC(C)C[C@H](O)[C@H](O)[C@H](CC1CCCCC1)NC(=O)[C@@H](CC(=O)N(CC(=O)N(C)CCc1ccccn1)CC1CCCCC1)Cc1csc(N)n1 [BILA2157]
- ventricular fibrillation during reperfusion [1]: no ventricular fibrillation; also recorded: ventricular fibrillation did not occur
- ventricular fibrillation during reperfusion ([1]; listed as BILA 2157): prevent ventricular fibrillation; also recorded: essentially no ventricular fibrillation
- renin overflow into coronary effluent on reperfusion [1]: abrogated
- renin overflow into coronary effluent on reperfusion ([1]; listed as BILA 2157): prevented renin release
- IC50 [2]: 1 nM
- chronotropic response to 48/80 [3]: markedly abbreviated
- chronotropic response to 48/80 ([3]; listed as BILA 2157): diminishes the chronotropic response
- share of ANG I activity due to BILA2157-sensitive renin ([4]; 240 nM angiotensinogen, initially and 48 hours after degranulation with 48/80): about 70%
- share of total ANG I formed that originates from renin (BILA2157-sensitive) ([4]; increasing angiotensinogen concentrations): ~70%
- effect on 48/80 potentiation of norepinephrine release [5]: abolished
- renin overflow into coronary effluent after 48/80 challenge [6]: abolished
- renin overflow into coronary effluent after 48/80 challenge ([6]; listed as BILA 2157): markedly diminished
